Test results published in PubChem BioAssay (NCI).
“And” between values parts separate entries of the source, which are not always exact repeats. Equal entries are not always repeated.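 Protocol summary: plate cells (96-well), add compound at 5 concentrations, incubate 48 h, interpolate endpoints linearly. GI50 is the concentration that inhibits growth by half. TGI: total growth inhibition.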

System: MDA-MB-468 breast
Assay: NCI anticancer screen, dose series, 48 h

Row | SMILES | GI50 | TGI
1 | CN(C)c1ccc(-c2ccc(-c3ccc(C(=N)N)cn3)o2)cc1 | 1.39 µM | 3.05 µM
2 | O=c1[nH]cnc2n[nH]nc12 | 1.31 µM | 12.7 µM
3 | CC[C@H]1OC(=O)[C@H](C)[C@@H](O[C@H]2C[C@@](C)(OC)[C@@H](O)[C@H](C)O2)[C@H](C)[C@@H](O[C@@H]2O[C@H](C)C[C@H](N(C)C)[C@H]2O)[C@](C)(OC)C/C(C)=C2/O[C@@]1(C)C=C2C | 1.82 µM | 3.5 µM
4 | CC(C)OP(=O)(O)c1ncc(-c2ccc(C(F)(F)F)cc2)c(NC2CCCCCC2)n1 | 11.2 µM | > 100 µM
5 | COc1ccc(C2=Nn3c(nnc3-n3nc(C)cc3C)SC2)cc1 | 0.14 µM | > 100 µM
6 | Cc1ccc(C2CC(c3ccc(Nc4ccnc5cc(Cl)ccc45)cc3)=NN2C=O)cc1 (configuration not stated) | 1.51 µM | > 100 µM
7 | CCOC(=O)[C@@H]1CSC(CC)=C(C(=O)O)N1 | > 100 µM | > 100 µM
8 | COc1ccc(-c2cc(/C=C/C(=O)c3ccc(N)cc3)[nH]n2)cc1 | 0.43 µM | 2.09 µM
9 | COc1cc2cc(Oc3cccc(NC(=O)Nc4cc(C(F)(F)F)cc(C(F)(F)F)c4)c3)c(C)nc2cc1OC | 1.08 µM | 3.96 µM
10 | COc1ccc(/C=C/C(=O)c2cc3c(N)c(C(=O)Nc4ccc(OC)cc4)sc3nc2C)cc1 | 0.135 µM | > 50 µM
11 | O=[N+]([O-])/C=C/c1ccc(Cl)cc1[N+](=O)[O-] | 1.92 µM | 3.69 µM
12 | C#C[C@]1(O)CC[C@H]2[C@@H]3CC=C4c5nc(N)sc5CC[C@]4(C)[C@H]3CC[C@@]21C | 2.52 µM | 7.03 µM
13 | CCOC(=O)c1c(NC(=O)c2ccc(Cl)cc2)sc2c(CN(C)C)c(O)ccc12 | 3.48 µM | 18.6 µM
14 | CCc1ccc2c(c1)N(CCO)C1=C(C(=O)OC1)C2c1cc(OC)c(OC)c(OC)c1 (configuration not stated) | 0.0897 µM | 0.347 µM
15 | CC1(C)N=C(N)N=C(N)N1c1cccc(CCc2ccccc2)c1 | 0.0745 µM | 2.51 µM
16 | CCOc1ccc2cc(-c3nn(CC4CCNCC4)c4ncnc(N)c34)ccc2c1 | 14.3 µM | 30.2 µM
17 | COc1cc(/C=C2\SC(N3CCCCC3)=NC2=O)ccc1OCCCCCCOc1ccc(/C=C2\SC(N3CCCCC3)=NC2=O)cc1OC | 10.3 µM | 37.2 µM
18 | COc1ccc(C(O)c2cc3c(N)c(C(=O)Nc4cccc(Br)c4C)sc3nc2C)cc1 (configuration not stated) | 0.125 µM | 19.1 µM
19 | CS(=O)(=O)Nc1cc(-c2ccc3ncnc(Nc4cccc(Cl)c4)c3c2)cnc1Cl | 0.145 µM | 0.59 µM
20 | CCO/C=N/C1=C(C#N)C(c2ccc(OC)cc2)c2sc3c(CC)cccc3c2O1 (configuration not stated) | 2.5 µM | 10.3 µM
21 | COc1cc2ncnc(Oc3cccc(NC(=O)Nc4cc(C(C)(C)C(F)(F)F)on4)c3)c2cc1OC | 1.04 µM and 1.26 µM | 6.01 µM and 6.4 µM

Row | SMILES | GI50 | TGI
22 | NC(=O)/C(=C/n1cnc(-c2cc(C(F)(F)F)cc(C(F)(F)F)c2)n1)c1cncnc1 | 0.373 µM | 3.01 µM
23 | COc1cc(-c2nn(-c3cccc(NC(=O)CCNc4ccc(N5CCOCC5)cc4)c3)cc2-c2ccncc2)ccc1Cl | 2.01 µM | 22.9 µM
24 | COc1cc(-c2nn(-c3cccc(NC(=O)CCN4CCN(c5ccccc5)CC4)c3)cc2-c2ccncc2)ccc1Cl | 3.03 µM | 51.4 µM
25 | COc1ccc2c(c1)C(=O)c1c-2c(OCCN(C)C)nc2cc(OC)c(OC)cc12 | 3.95 µM | 19 µM
26 | O=C1Nc2ccc3c(c2/C1=C\c1cc2c(cc1Br)OCO2)OCO3 | 0.295 µM | 0.978 µM
27 | COc1cc(NC2CCCCC2O)c2nc(-c3ccc(Cl)cc3)ccc2c1 (configuration not stated) | 7.48 µM | 98.4 µM
28 | C=CC(=O)Nc1cc2c(Nc3ccc(F)c(Cl)c3)ncnc2cc1C#CC(C)(C)N1CCN(C)CC1 | 0.00795 µM | 0.401 µM
29 | Cc1cc(NN=C(c2ccc(O)cc2)c2ccc(O)cc2)c([N+](=O)[O-])cc1[N+](=O)[O-] | 4.91 µM | 36.7 µM
30 | CCOC(=O)c1c(CN2CCN(C)CC2)nc2ccc(Cl)cc2c1-c1ccccc1 | 1.8 µM | 4.43 µM
31 | COc1cc2c3cc1Oc1c(OC)c(OC)cc4c1C(Cc1ccc(O)c(c1)Oc1ccc(cc1)CC3N(C)CC2)N(C)CC4 (configuration not stated) | 8.21 µM | 23.1 µM
32 | CC(O)[C@H](NC(=O)N[C@@H](CC(N)=O)c1nc(N2CCNCC2)no1)C(=O)O (some centres not stated) | > 100 µM | > 100 µM
33 | O=CN1N=C(c2cccc(Nc3ccnc4cc(Cl)ccc34)c2)CC1c1ccc(Cl)cc1 (configuration not stated) | 0.422 µM | 3.17 µM
34 | CC(=O)Oc1cc2cnc3c4cc(OC(C)=O)c(OC(C)=O)cc4ccc3c2cc1OC(C)=O | 1.2 µM | 4.44 µM
35 | COc1ccc2c(c1OC)O/C(=C\c1ncc([N+](=O)[O-])n1C)C2=O | 2.51 µM | 8.23 µM
36 | CCCCCCCCCCCCCCCC[n+]1ccccc1 | 0.104 µM and 0.194 µM | 0.428 µM and 0.793 µM
37 | COc1cccc(-c2nc3sccn3c2-c2ccnc(NCCCNS(=O)(=O)c3ccccc3)c2)c1 | 2.47 µM | 7.83 µM
38 | CN1CC[C@H](c2c(O)cc(O)c3c(=O)cc(-c4ccccc4Cl)oc23)[C@H](O)C1 | 0.0718 µM | 0.269 µM
39 | CCn1c(-c2nonc2N)nc2cnc(Oc3cccc(NC(=O)c4ccc(N(C)C)cc4)c3)cc21 | 10.7 µM | > 25 µM
40 | C[C@@H]1CCc2ncc(F)cc2[C@H]2CCCN2c2ccn3ncc(c3n2)C(=O)N1 | 76.4 µM | > 100 µM
41 | CCOC(=O)/C(=C\c1ccc2ccccc2c1)P(=O)(OCC)OCC | 1.9 µM | 3.83 µM
